Laboratory results: patent US8796470B2 (AbbVie Inc., priority 2010, dated 2014)

Target: T1, human Cav2.2 (Homo sapiens, UniProt Q00975)
T1 construct: IMR32 cells endogenously expressing human Cav2.2; endogenous in cells; host or cells: IMR32 cells (human neuroblastoma)
Assay: Assessment of calcium channel activity using FLIPR (Ca2+ influx in IMR32 cells)
Format: cell-based
Conditions: IMR32 cells endogenously expressing human Cav2.2, Calcium 4 dye, 60 minute pre-incubation, 2 μM nifedipine, depolarized with 80 mM KCl, 5 mM CaCl2
Method: (i) In Vitro Methods—Assessment of Calcium Channel Activity Using FLIPR:
IMR32 cells endogenously expressing human Cav2.2 were assayed for Ca^2+ influx using a no-wash calcium indicator dye (Calcium 4 dye: Molecular Probes) and FLIPR technology (Lubin, M. L.; Reitz, T. L.; Todd, M. J.; Flores, C. M.; Qin, N.; Xin, H. Assay and Drug Development Technologies 2006, 4(6), 689-694.). The IMR32 cells were maintained in MEM media containing 10% (v/v) FBS, 1% (v/v) antibiotic/antimitotic, 1% (v/v) sodium pyruvate and 1% (v/v) MEM NEAA. Following dissociation in 0.05% (v/v) trypsin/EDTA, cells were seeded into black 1×96-well plates (Corning Cellbind) at a density of 1−1.2×10^5 cells/well and incubated in the maintenance media above for 48 hours at 37° C. Immediately prior to performing the assay the media was removed and cells were loaded for 1.5 hours with 1×Calcium 4 dye prepared in HBSS (137 mM NaCl, 5.4 mM KCl, 0.25 mM Na2HPO4, 0.44 mM KH2PO4, 1.3 mM CaCl2, 1 mM MgSO4, 4.2 mM NaHCO3) containing HEPES pH 7.4 at room temperature. After dye loading and a subsequent 60 minute pre-incubation with compounds (full log dilutions from 10 μM to 0.1 nM) in the presence of 1.3 mM CaCl2 and 2 μM nifedipine to block endogenous L-type channels, the external Ca^2+ concentration was increased to 5 mM CaCl2 and the cells concomitantly depolarized with 80 mM KCl to assay channel activity. To determine the IC50 values, the percent inhibition of the compound at each concentration was determined relative to the activity in the absence of inhibitor, and data was fitted using non-linear regression sigmoidal dose response curve analysis with GraphPad Prism®.

T1 sequence (Q00975 whole entry): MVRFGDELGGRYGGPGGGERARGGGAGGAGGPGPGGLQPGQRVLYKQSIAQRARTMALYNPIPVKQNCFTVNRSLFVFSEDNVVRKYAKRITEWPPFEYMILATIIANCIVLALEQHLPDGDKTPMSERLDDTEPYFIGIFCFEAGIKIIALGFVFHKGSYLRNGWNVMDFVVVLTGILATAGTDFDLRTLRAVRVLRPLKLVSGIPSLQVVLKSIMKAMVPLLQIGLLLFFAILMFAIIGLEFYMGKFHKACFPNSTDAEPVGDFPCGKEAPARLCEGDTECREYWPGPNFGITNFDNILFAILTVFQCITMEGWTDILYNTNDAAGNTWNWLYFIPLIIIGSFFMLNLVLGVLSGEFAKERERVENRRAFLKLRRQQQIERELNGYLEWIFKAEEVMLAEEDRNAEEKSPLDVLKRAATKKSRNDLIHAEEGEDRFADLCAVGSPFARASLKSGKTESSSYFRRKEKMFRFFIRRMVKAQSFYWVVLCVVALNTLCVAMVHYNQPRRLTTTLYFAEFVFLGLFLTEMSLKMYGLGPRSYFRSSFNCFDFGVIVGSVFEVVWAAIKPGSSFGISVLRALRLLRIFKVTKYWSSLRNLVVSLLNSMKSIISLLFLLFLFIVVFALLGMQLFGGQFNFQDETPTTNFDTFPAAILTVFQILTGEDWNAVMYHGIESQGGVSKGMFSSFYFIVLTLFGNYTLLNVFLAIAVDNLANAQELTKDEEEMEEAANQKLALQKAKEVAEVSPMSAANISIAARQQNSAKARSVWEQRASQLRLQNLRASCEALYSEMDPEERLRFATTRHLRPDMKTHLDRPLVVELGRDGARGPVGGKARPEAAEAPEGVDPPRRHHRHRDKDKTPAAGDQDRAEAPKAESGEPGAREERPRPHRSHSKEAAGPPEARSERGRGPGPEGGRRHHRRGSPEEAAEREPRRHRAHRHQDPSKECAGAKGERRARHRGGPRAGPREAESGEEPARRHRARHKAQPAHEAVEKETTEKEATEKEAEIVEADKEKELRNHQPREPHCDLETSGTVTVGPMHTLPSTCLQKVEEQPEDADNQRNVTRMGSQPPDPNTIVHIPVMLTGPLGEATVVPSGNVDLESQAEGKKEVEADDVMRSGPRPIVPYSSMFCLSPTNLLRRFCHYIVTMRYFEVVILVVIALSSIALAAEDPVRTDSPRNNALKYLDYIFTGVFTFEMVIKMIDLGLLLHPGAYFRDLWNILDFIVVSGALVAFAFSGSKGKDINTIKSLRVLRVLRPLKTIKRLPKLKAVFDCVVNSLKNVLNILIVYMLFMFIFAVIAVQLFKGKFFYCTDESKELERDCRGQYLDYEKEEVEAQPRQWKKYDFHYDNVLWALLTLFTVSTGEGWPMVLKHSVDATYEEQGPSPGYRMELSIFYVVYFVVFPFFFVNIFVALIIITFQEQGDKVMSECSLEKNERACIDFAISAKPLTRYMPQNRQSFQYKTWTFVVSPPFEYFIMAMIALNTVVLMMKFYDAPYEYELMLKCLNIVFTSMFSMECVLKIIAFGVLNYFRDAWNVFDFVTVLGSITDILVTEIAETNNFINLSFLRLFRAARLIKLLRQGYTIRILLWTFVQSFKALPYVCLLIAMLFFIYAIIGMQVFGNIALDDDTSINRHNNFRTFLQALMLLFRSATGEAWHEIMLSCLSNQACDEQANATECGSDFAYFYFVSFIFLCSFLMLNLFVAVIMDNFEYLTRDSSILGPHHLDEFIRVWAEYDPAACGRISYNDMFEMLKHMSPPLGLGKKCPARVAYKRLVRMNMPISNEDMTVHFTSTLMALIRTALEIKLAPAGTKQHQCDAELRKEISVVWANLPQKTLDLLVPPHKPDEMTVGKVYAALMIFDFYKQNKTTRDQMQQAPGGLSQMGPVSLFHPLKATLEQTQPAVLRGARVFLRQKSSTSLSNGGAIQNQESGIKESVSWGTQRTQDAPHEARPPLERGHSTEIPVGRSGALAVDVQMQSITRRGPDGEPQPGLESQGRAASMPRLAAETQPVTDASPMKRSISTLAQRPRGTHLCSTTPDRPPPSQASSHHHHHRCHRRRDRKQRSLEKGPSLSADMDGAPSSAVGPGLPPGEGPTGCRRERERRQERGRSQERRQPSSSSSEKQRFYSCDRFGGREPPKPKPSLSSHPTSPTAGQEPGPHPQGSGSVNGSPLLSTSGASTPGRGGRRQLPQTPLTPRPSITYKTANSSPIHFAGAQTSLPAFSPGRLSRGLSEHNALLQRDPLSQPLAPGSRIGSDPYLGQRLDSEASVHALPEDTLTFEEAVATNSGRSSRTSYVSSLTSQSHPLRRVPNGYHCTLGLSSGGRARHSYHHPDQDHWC
T1 sequence (P54289 25-956 partner limits assumed): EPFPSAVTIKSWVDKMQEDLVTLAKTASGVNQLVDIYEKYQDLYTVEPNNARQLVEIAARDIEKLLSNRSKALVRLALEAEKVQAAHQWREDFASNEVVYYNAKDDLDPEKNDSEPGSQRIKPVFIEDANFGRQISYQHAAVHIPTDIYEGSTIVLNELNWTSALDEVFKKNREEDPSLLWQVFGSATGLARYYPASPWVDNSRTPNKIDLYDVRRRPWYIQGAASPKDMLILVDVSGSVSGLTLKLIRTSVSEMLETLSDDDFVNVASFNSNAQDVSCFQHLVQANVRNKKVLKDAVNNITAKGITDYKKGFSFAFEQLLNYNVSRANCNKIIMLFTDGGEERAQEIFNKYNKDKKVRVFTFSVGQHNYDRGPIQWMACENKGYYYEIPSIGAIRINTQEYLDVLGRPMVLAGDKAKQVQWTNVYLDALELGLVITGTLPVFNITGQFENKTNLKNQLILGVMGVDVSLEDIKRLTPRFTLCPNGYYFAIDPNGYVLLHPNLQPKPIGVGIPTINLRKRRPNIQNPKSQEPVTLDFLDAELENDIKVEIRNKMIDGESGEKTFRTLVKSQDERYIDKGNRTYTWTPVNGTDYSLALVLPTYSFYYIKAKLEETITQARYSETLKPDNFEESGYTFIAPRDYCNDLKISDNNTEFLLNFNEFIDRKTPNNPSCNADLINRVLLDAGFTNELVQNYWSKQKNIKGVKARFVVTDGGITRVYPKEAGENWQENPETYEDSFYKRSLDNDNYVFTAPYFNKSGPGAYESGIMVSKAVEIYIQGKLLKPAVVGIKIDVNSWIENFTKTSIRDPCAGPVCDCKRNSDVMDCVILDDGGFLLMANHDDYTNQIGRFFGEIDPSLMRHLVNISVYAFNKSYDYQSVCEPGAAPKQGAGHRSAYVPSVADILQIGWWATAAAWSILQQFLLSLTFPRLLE
T1 sequence (P54289 957-1103 partner limits assumed): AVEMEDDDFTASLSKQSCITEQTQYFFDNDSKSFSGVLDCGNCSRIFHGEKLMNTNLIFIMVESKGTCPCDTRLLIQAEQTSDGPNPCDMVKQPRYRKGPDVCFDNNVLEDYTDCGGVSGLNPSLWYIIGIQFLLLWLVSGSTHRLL
T1 sequence (P54284 whole entry partner): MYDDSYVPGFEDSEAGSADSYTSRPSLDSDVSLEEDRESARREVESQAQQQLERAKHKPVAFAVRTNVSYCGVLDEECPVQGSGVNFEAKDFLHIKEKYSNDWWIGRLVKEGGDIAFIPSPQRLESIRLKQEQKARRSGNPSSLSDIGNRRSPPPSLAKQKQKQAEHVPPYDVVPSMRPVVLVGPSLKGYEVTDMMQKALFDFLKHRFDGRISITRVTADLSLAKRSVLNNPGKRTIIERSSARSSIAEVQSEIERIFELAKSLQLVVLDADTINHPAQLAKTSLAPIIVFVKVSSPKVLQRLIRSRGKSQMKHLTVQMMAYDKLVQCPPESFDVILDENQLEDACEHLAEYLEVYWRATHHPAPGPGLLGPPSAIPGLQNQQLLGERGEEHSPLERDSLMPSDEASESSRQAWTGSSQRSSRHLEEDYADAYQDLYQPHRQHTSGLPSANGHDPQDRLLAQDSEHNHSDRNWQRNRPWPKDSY

Row | SMILES | IC50
1 | C[C@@]1(O)CC[C@@H]2CN(c3cccc(C(F)(F)F)n3)C[C@@H]21 [Example 33, (3aR,4R,6aS)-4-methyl-2-[6-(trifluoromethyl)pyridin-2-yl]octahydrocyclopenta[c]pyrrol-4-ol] | 8.34 µM
2 | CC(C)[C@@]1(O)CC[C@@H]2CN(c3cccc(C(F)(F)F)n3)C[C@@H]21 [Example 34, (3aR,4S,6aS)-4-isopropyl-2-[6-(trifluoromethyl)pyridin-2-yl]octahydrocyclopenta[c]pyrrol-4-ol] | 3.05 µM
3 | O[C@]1(c2ccccc2)CC[C@@H]2CN(c3cccc(C(F)(F)F)n3)C[C@@H]21 [Example 35, (3aR,4R,6aS)-4-phenyl-2-[6-(trifluoromethyl)pyridin-2-yl]octahydrocyclopenta[c]pyrrol-4-ol] | 2.87 µM
4 | O[C@]1(c2cccc(F)c2)CC[C@@H]2CN(c3cccc(C(F)(F)F)n3)C[C@@H]21 [Example 36, (3aR,4R,6aS)-4-(3-fluorophenyl)-2-[6-(trifluoromethyl)pyridin-2-yl]octahydrocyclopenta[c]pyrrol-4-ol] | 6.13 µM
5 | O[C@]1(Cc2ccc(F)c(F)c2)CC[C@@H]2CN(c3cccc(C(F)(F)F)n3)C[C@@H]21 [Example 37, (3aR,4S,6aS)-4-(3,4-difluorobenzyl)-2-[6-(trifluoromethyl)pyridin-2-yl]octahydrocyclopenta[c]pyrrol-4-ol] | 3.72 µM
6 | CC(c1cccc(F)c1)[C@@]1(O)CC[C@@H]2CN(c3cccc(C(F)(F)F)n3)C[C@@H]21 (stereo partly drawn) [Example 38, (3aR,4S,6aS)-4-[1-(3-fluorophenyl)ethyl]-2-[6-(trifluoromethyl)pyridin-2-yl]octahydrocyclopenta[c]pyrrol-4-ol] | 6.1 µM
7 | CO[C@H]1CC[C@@H]2CN(c3cccc(C(F)(F)F)n3)C[C@@H]21 [Example 40, (3aR,4S,6aS)-4-methoxy-2-[6-(trifluoromethyl)pyridin-2-yl]octahydrocyclopenta[c]pyrrole] | 3.37 µM
8 | CCO[C@H]1CC[C@@H]2CN(c3cccc(C(F)(F)F)n3)C[C@@H]21 [Example 41, (3aR,4S,6aS)-4-ethoxy-2-[6-(trifluoromethyl)pyridin-2-yl]octahydrocyclopenta[c]pyrrole] | 3.32 µM
9 | CC(C)O[C@H]1CC[C@@H]2CN(c3cccc(C(F)(F)F)n3)C[C@@H]21 [Example 42, (3aR,4S,6aS)-4-isopropoxy-2-[6-(trifluoromethyl)pyridin-2-yl]octahydrocyclopenta[c]pyrrole] | 3.82 µM
10 | CC(C)(C)O[C@H]1CC[C@@H]2CN(c3cccc(C(F)(F)F)n3)C[C@@H]21 [Example 43, (3aR,4S,6aS)-4-tert-butoxy-2-[6-(trifluoromethyl)pyridin-2-yl]octahydrocyclopenta[c]pyrrole] | 2.54 µM
11 | Fc1cccc(O[C@H]2CC[C@@H]3CN(c4cccc(C(F)(F)F)n4)C[C@@H]32)c1 [Example 44, (3aR,4S,6aS)-4-(3-fluorophenoxy)-2-[6-(trifluoromethyl)pyridin-2-yl]octahydrocyclopenta[c]pyrrole] | 6.01 µM
12 | Fc1cccc(CO[C@H]2CC[C@@H]3CN(c4cccc(C(F)(F)F)n4)C[C@@H]32)c1 [Example 45, (3aR,4S,6aS)-4-[(3-fluorobenzyl)oxy]-2-[6-(trifluoromethyl)pyridin-2-yl]octahydrocyclopenta[c]pyrrole] | 8.05 µM
13 | Fc1cccc(CCO[C@H]2CC[C@@H]3CN(c4cccc(C(F)(F)F)n4)C[C@@H]32)c1 [Example 46] | 8.41 µM
14 | O[C@]1(c2ccccc2)CC[C@@H]2CN(Cc3ccccc3)C[C@@H]21 [Example 47, (3aR,4R,6aS)-2-benzyl-4-phenyloctahydrocyclopenta[c]pyrrol-4-ol] | 8.83 µM
15 | Fc1cccc(O[C@H]2CC[C@@H]3CN(Cc4ccccc4)C[C@@H]32)c1 [Example 48, (3aR,4S,6aS)-2-benzyl-4-(3-fluorophenoxy)octahydrocyclopenta[c]pyrrole] | 2.95 µM
16 | C=C1CC[C@@H]2CN(c3cccc(C(F)(F)F)n3)C[C@H]12 [Example 49, (3aS,6aS)-4-methylene-2-[6-(trifluoromethyl)pyridin-2-yl]octahydrocyclopenta[c]pyrrole] | 24.9 µM
17 | FC(F)(F)c1cccc(N2C[C@H]3CC[C@H](n4ccnc4)[C@H]3C2)n1 [Example 50, (3aR,4S,6aS)-4-(1H-imidazol-1-yl)-2-[6-(trifluoromethyl)pyridin-2-yl]octahydrocyclopenta[c]pyrrole] | 4.3 µM

Row | SMILES | IC50
18 | FC(F)(F)c1cccc(N2C[C@H]3CC[C@H](n4cccn4)[C@H]3C2)n1 [Example 51, (3aR,4S,6aS)-4-(1H-pyrazol-1-yl)-2-[6-(trifluoromethyl)pyridin-2-yl]octahydrocyclopenta[c]pyrrole] | 1.39 µM
19 | FC(F)(F)c1cccc(N2C[C@H]3CC[C@H](n4cc(Cl)cn4)[C@H]3C2)n1 [Example 52, (3aR,4S,6aS)-4-(4-chloro-1H-pyrazol-1-yl)-2-[6-(trifluoromethyl)pyridin-2-yl]octahydrocyclopenta[c]pyrrole] | 7.39 µM
20 | FC(F)(F)c1cccc(N2C[C@H]3CC[C@H](OC[C@@H]4CCCN4)[C@H]3C2)n1 [Example 53, (3aR,4S,6aS)-4-[(2S)-pyrrolidin-2-ylmethoxy]-2-[6-(trifluoromethyl)pyridin-2-yl]octahydrocyclopenta[c]pyrrole] | 0.66 µM
21 | CC(C)(C)OC(=O)N1C[C@H]2CC[C@H](C(=O)Nc3cccc(F)c3)[C@H]2C1 [Example 54] | 11.6 µM
22 | O=C(Nc1cccc(F)c1)[C@H]1CC[C@@H]2CNC[C@@H]21 [Example 55, (3aS,4S,6aS)—N-(3-fluorophenyl)octahydrocyclopenta[c]pyrrole-4-carboxamide] | > 30 µM
23 | O=C(Nc1cccc(F)c1)[C@H]1CC[C@@H]2CN(c3cccc(C(F)(F)F)n3)C[C@@H]21 [Example 56, (3aS,4S,6aS)—N-(3-fluorophenyl)-2-[6-(trifluoromethyl)pyridin-2-yl]octahydrocyclopenta[c]pyrrole-4-carboxamide] | 8.9 µM
24 | FC(F)(F)c1cccc(N2C[C@H]3CC[C@H](n4cnc(-c5ccc(Cl)cc5)c4)[C@H]3C2)n1 [Example 57, (3aR,4S,6aS)-4-[4-(4-chlorophenyl)-1H-imidazol-1-yl]-2-[6-(trifluoromethyl)pyridin-2-yl]octahydrocyclopenta[c]pyrrole] | 5.79 µM
25 | FC(F)(F)c1cccc(N2C[C@H]3CC[C@H](n4cnc(-c5ccccc5)c4)[C@H]3C2)n1 [Example 58, (3aR,4S,6aS)-4-(4-phenyl-1H-imidazol-1-yl)-2-[6-(trifluoromethyl)pyridin-2-yl]octahydrocyclopenta[c]pyrrole] | 3.15 µM
26 | FC(F)(F)c1cccc(N2C[C@H]3CC[C@H](n4cnc5ccccc54)[C@H]3C2)n1 [Example 60, 1-{(3aR,4S,6aS)-2-[6-(trifluoromethyl)pyridin-2-yl]octahydrocyclopenta[c]pyrrol-4-yl}-1H-benzimidazole] | 1.96 µM
27 | Cc1nccn1[C@H]1CC[C@@H]2CN(c3cccc(C(F)(F)F)n3)C[C@@H]21 [Example 61, (3aR,4S,6aS)-4-(2-methyl-1H-imidazol-1-yl)-2-[6-(trifluoromethyl)pyridin-2-yl]octahydrocyclopenta[c]pyrrole] | 3.57 µM
28 | FC(F)(F)c1cccc(N2C[C@H]3CC[C@H](n4ccnc4-c4ccccc4)[C@H]3C2)n1 [Example 62, (3aR,4S,6aS)-4-(2-phenyl-1H-imidazol-1-yl)-2-[6-(trifluoromethyl)pyridin-2-yl]octahydrocyclopenta[c]pyrrole] | 1.03 µM
29 | Cc1cnn([C@H]2CC[C@@H]3CN(c4cccc(C(F)(F)F)n4)C[C@@H]32)c1 [Example 63, (3aR,4S,6aS)-4-(4-methyl-1H-pyrazol-1-yl)-2-[6-(trifluoromethyl)pyridin-2-yl]octahydrocyclopenta[c]pyrrole] | 2.78 µM
30 | Fc1cccc2ncn([C@H]3CC[C@@H]4CN(c5cccc(C(F)(F)F)n5)C[C@@H]43)c12 [Example 64, 7-fluoro-1-{(3aR,4S,6aS)-2-[6-(trifluoromethyl)pyridin-2-yl]octahydrocyclopenta[c]pyrrol-4-yl}-1H-benzimidazole] | 3.6 µM
31 | FC(F)(F)c1cccc(N2C[C@H]3CC[C@H](n4ncc5ccccc54)[C@H]3C2)n1 [Example 65, 1-{(3aR,4S,6aS)-2-[6-(trifluoromethyl)pyridin-2-yl]octahydrocyclopenta[c]pyrrol-4-yl}-1H-indazole] | 4.85 µM
32 | Cc1ccn([C@H]2CC[C@@H]3CN(c4cccc(C(F)(F)F)n4)C[C@@H]32)n1 [Example 66, (3aR,4S,6aS)-4-(3-methyl-1H-pyrazol-1-yl)-2-[6-(trifluoromethyl)pyridin-2-yl]octahydrocyclopenta[c]pyrrole] | 5.74 µM
33 | Cc1cn([C@H]2CC[C@@H]3CN(c4cccc(C(F)(F)F)n4)C[C@@H]32)cn1 [Example 67, (3aR,4S,6aS)-4-(4-methyl-1H-imidazol-1-yl)-2-[6-(trifluoromethyl)pyridin-2-yl]octahydrocyclopenta[c]pyrrole] | 4.33 µM
